28 compounds from patent US20150353495A1 (PORTOLA PHARMACEUTICALS, INC., priority 2010, published 2015) can be followed below.

As a reminder, the IC50 is the point on the concentration scale where inhibition reaches its midpoint. High values mean a need for much substance, low ones inhibition by little substance.

Holding throughout (format): biochemical
One test deals with T1, JAK1 (Homo sapiens, UniProt P23458).
T1 construct: 5 μl of catalytic domain recombinant Kinase enzyme+Tyr peptide substrate (Invitrogen, CA); purchased Invitrogen
T1 sequence (P23458 875-1153 limits assumed): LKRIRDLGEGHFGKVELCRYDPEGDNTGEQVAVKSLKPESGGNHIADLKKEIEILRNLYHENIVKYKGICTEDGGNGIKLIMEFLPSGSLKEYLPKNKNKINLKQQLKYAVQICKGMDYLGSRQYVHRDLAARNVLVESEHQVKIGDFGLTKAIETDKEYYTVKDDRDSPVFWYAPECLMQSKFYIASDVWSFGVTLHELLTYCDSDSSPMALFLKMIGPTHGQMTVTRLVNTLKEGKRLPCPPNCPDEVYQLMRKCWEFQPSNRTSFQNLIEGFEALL
As to the kind of experiment: Z'-LYTE kinase assay JAK1. Summed up:
(§1)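 Catalytic-domain recombinant kinase was incubated with Tyr6 FRET peptide, ATP and compound (1% DMSO final) for 1 h at room temperature. Protease development followed for 1 h, cleaving only non-phosphorylated peptide. Inhibition of phosphorylation was read as coumarin/fluorescein FRET fluorescence.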

A further test concerns the target T2, JAK2 (Homo sapiens, UniProt O60674).
T2 construct: 5 μl of catalytic domain recombinant Kinase enzyme+Tyr peptide substrate (Invitrogen, CA); purchased Invitrogen
In words: Z'-LYTE kinase assay JAK2. Summed up:
as §1

The target in a further test is T3, JAK3 (Homo sapiens, UniProt P52333).
T3 construct: 5 μl of catalytic domain recombinant Kinase enzyme+Tyr peptide substrate (Invitrogen, CA); purchased Invitrogen
T3 sequence (P52333 822-1111 limits assumed): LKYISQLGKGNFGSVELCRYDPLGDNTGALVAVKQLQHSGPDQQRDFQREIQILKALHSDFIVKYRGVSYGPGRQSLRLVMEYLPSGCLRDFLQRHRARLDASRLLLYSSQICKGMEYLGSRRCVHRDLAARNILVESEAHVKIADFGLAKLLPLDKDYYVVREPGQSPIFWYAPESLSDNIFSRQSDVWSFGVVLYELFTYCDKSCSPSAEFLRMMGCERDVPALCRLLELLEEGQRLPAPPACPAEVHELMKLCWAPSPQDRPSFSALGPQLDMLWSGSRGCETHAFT
In words: Z'-LYTE kinase assay JAK3. Summed up:
as §1

Bounds are passed on as bounds.

T2 sequence (O60674 849-1124 limits assumed): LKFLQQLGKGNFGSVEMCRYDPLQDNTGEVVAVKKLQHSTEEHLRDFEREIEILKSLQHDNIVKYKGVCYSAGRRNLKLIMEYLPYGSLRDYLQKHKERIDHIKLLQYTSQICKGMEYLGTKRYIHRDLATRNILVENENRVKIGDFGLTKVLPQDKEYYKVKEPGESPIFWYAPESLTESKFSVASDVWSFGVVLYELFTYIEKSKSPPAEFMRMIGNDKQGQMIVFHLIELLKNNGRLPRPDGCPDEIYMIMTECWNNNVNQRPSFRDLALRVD

For the compound `NC(=O)c1cnc(Nc2cccc(C3CCOCC3)c2)cc1NCc1cncc(F)c1` [Example 208, 4-((5-fluoropyridin-3-yl)methylamino)-6-(3-(tetrahydro-2H-pyran-4-yl)phenylamino)nicotinamide], the results for the concentration for half-maximal inhibition (IC50) at JAK1, against JAK2 and at JAK3 were 0.1 to 1 µM, 0.01 to 0.1 µM and 0.001 to 0.01 µM, respectively.

Consider `CCC(=O)N1CCC(c2ccc(Nc3cc(NCc4cccc5[nH]ncc45)c(C(N)=O)cn3)cc2)CC1` [Example 210, 4-((1H-indazol-4-yl)methylamino)-6-(4-(1-propionylpiperidin-4-yl)phenylamino)nicotinamide], for which the results for the IC50 against JAK1, on JAK2 and on JAK3 were 0.01 to 0.1 µM, 0.01 to 0.1 µM and 0.001 to 0.01 µM, respectively.

In the case of `CCC(=O)N1CCC(c2ccc(Nc3cc(NCc4cccc5ccsc45)c(C(N)=O)cn3)cc2)CC1` [Example 211, 4-(benzo[b]thiophen-7-ylmethylamino)-6-(4-(1-propionylpiperidin-4-yl)phenylamino)nicotinamide], the figures for the half-inhibitory concentration (IC50) at JAK1, at JAK2 and against JAK3 were greater than 1 µM, 0.1 to 1 µM and 0.001 to 0.01 µM, respectively.

For `NC(=O)c1cnc(Nc2ccc(C3CNC3)cc2)cc1NCc1cccc(F)c1F` [Example 212, 6-(4-(azetidin-3-yl)phenylamino)-4-(2,3-difluorobenzylamino)nicotinamide], the IC50 lay within 0.1 to 1 µM against JAK1, 0.01 to 0.1 µM against JAK2 and 0.001 to 0.01 µM on JAK3.

Consider `NC(=O)c1cnc(Nc2ccc(C3CNC3)cc2)cc1NCc1cc(F)ccc1F` [Example 213, 6-(4-(azetidin-3-yl)phenylamino)-4-(2,5-difluorobenzylamino)nicotinamide], for which the half-maximal inhibitory concentration (IC50) against JAK1 fell in the range of 0.1 to 1 µM; against JAK2, 0.01 to 0.1 µM; at JAK3, 0.001 to 0.01 µM.

As for `NC(=O)c1cnc(Nc2ccc(C3CCNCC3)cc2)cc1NCc1cc(F)ccc1F` [Example 214, 4-(2,5-difluorobenzylamino)-6-(4-(piperidin-4-yl)phenylamino)nicotinamide], the IC50 at JAK1 fell in the range of 0.01 to 0.1 µM; at JAK2, 0.01 to 0.1 µM; against JAK3 it was 0.001 to 0.01 µM.

For `N#CCN1CCC(c2ccc(Nc3cc(NCc4cccc(F)c4F)c(C(N)=O)cn3)cc2)CC1` [Example 215, 6-(4-(1-(cyanomethyl)piperidin-4-yl)phenylamino)-4-(2,3-difluorobenzylamino)nicotinamide], the half-inhibitory concentration (IC50) against JAK1 is greater than 1 µM; on JAK2 it was 0.1 to 1 µM; on JAK3, 0.01 to 0.1 µM.

Turning to `NC(=O)c1cnc(Nc2ccc(C3CCN(CC(F)F)CC3)cc2)cc1NCc1cccc(F)c1F` [Example 216, 4-(2,3-difluorobenzylamino)-6-(4-(1-(2,2-difluoroethyl)piperidin-4-yl)phenylamino)nicotinamide], the results for the half-maximal inhibitory concentration (IC50) at JAK1, against JAK2 and at JAK3 were greater than 1 µM, greater than 1 µM and 0.01 to 0.1 µM, respectively.

Turning to `NC(=O)c1cnc(Nc2ccc(C3CCN(CCF)CC3)cc2)cc1NCc1cccc(F)c1F` [Example 217, 4-(2,3-difluorobenzylamino)-6-(4-(1-(2-fluoroethyl)piperidin-4-yl)phenylamino)nicotinamide], the values for the IC50 at JAK1, on JAK2 and against JAK3 were 0.1 to 1 µM, 0.01 to 0.1 µM and 0.001 to 0.01 µM, respectively.

Turning to `N#CCN1CCC(c2ccc(Nc3cc(NCc4cc(F)ccc4F)c(C(N)=O)cn3)cc2)CC1` [Example 218, 6-(4-(1-(cyanomethyl)piperidin-4-yl)phenylamino)-4-(2,5-difluorobenzylamino)nicotinamide], the half-inhibitory concentration (IC50) against JAK1 was 0.1 to 1 µM; at JAK2 it was 0.01 to 0.1 µM; at JAK3 it was 0.001 to 0.01 µM.

For `CN(C)C(=O)c1ccc(Nc2cc(NCc3cccc(-n4ccnc4)c3)c(C(N)=O)cn2)cc1` [Example 224, 4-(3-(1H-imidazol-1-yl)benzylamino)-6-(4-(dimethylcarbamoyl)phenylamino)nicotinamide], the IC50 at JAK1 is 0.1 to 1 µM; against JAK2, 0.1 to 1 µM; against JAK3, 0.001 to 0.01 µM.

For `CC(=O)N1CCN(c2ccc(Nc3cc(NCc4ccc(F)cc4F)c(C(N)=O)cn3)cc2)CC1` [Example 259, 6-(4-(4-acetylpiperazin-1-yl)phenylamino)-4-(2,4-difluorobenzylamino)nicotinamide], the IC50 is greater than 1 µM against JAK1, 0.1 to 1 µM on JAK2 and 0.01 to 0.1 µM on JAK3.

For `COC[C@@H](Nc1cc(Nc2ccc(OC)cc2)ncc1C(N)=O)c1ccccc1` [Example 260, (S)-4-(2-methoxy-1-phenylethylamino)-6-(4-methoxyphenylamino)nicotinamide], the figures for the concentration for half-maximal inhibition (IC50) on JAK1, on JAK2 and against JAK3 were greater than 1 µM, greater than 1 µM and 0.01 to 0.1 µM, respectively.

As for `COC[C@@H](Nc1cc(Nc2cccc(N3CCOCC3)c2)ncc1C(N)=O)c1ccccc1` [Example 261, (S)-4-(2-methoxy-1-phenylethylamino)-6-(3-morpholinophenylamino)nicotinamide], the values for the 50% inhibitory concentration (IC50) on JAK1, against JAK2 and against JAK3 were greater than 1 µM, 0.1 to 1 µM and 0.01 to 0.1 µM, respectively.

As to `COC[C@@H](Nc1cc(Nc2ccc(N3CCOCC3)cc2)ncc1C(N)=O)c1ccccc1` [Example 262, (S)-4-(2-methoxy-1-phenylethylamino)-6-(4-morpholinophenylamino)nicotinamide], the 50% inhibitory concentration (IC50) at JAK1 is greater than 1 µM; against JAK2, 0.1 to 1 µM; at JAK3, 0.01 to 0.1 µM.

For `COC[C@@H](Nc1cc(Nc2ccc(C(=O)N(C)C)cc2)ncc1C(N)=O)c1ccccc1` [Example 263, (S)-6-(4-(dimethylcarbamoyl)phenylamino)-4-(2-methoxy-1-phenylethylamino)nicotinamide], the figures for the IC50 at JAK1, at JAK2 and against JAK3 were greater than 1 µM, 0.1 to 1 µM and 0.01 to 0.1 µM, respectively.

With `COC[C@@H](Nc1cc(Nc2ccc(C(=O)N3CCC3)cc2)ncc1C(N)=O)c1ccccc1` [Example 264, (S)-6-(4-(azetidine-1-carbonyl)phenylamino)-4-(2-methoxy-1-phenylethylamino)nicotinamide], the IC50 is 0.1 to 1 µM at JAK1, 0.1 to 1 µM against JAK2 and 0.01 to 0.1 µM against JAK3.

As for `COCC(=O)N1CCC[C@H](CNc2cc(Nc3ccc(C(=O)N(C)C)cc3)ncc2C(N)=O)C1` [Example 266, (R)-6-(4-(dimethylcarbamoyl)phenylamino)-4-((1-(2-methoxyacetyl)piperidin-3-yl)methylamino)nicotinamide], the half-maximal inhibitory concentration (IC50) against JAK1 is greater than 1 µM; at JAK2 it was greater than 1 µM; at JAK3, 0.01 to 0.1 µM.

Consider `COCC(=O)N1CCC[C@H](CNc2cc(Nc3ccc(C(=O)N4CCCC4)cc3)ncc2C(N)=O)C1` [Example 267, (R)-4-((1-(2-methoxyacetyl)piperidin-3-yl)methylamino)-6-(4-(pyrrolidine-1-carbonyl)phenylamino)nicotinamide], for which the IC50 against JAK1 was greater than 1 µM; against JAK2 it was 0.1 to 1 µM; at JAK3 it was 0.01 to 0.1 µM.

Turning to `CN(C)S(=O)(=O)N(C)c1ccc(Nc2cc(NCc3ccccc3)c(C(N)=O)cn2)cc1` [Example 268, 4-(benzylamino)-6-(4-((N,N-dimethylsulfamoyl)(methyl)amino)phenylamino)nicotinamide], the IC50 was in the range of 0.1 to 1 µM against JAK1, 0.1 to 1 µM at JAK2 and 0.01 to 0.1 µM against JAK3.

Consider `CC(=O)N1CCC[C@H](CNc2cc(Nc3ccc(NS(=O)(=O)N(C)C)cc3)ncc2C(N)=O)C1` [Example 269, (R)-4-((1-acetylpiperidin-3-yl)methylamino)-6-(4-(N,N-dimethylsulfamoylamino)phenylamino)nicotinamide], for which the IC50 was in the range of 0.1 to 1 µM against JAK1, 0.1 to 1 µM against JAK2 and 0.01 to 0.1 µM against JAK3.

For `COc1ccc(Nc2cc(NC[C@H]3CCCNC3)c(C(N)=O)cn2)cc1` [Example 270, (S)-6-(4-methoxyphenylamino)-4-(piperidin-3-ylmethylamino)nicotinamide], the 50% inhibitory concentration (IC50) on JAK1 was 0.1 to 1 µM; against JAK2, greater than 1 µM; at JAK3 it was 0.1 to 1 µM.

On to `CCC(=O)N1CCC[C@H](CNc2cc(Nc3ccc(OC)cc3)ncc2C(N)=O)C1` [Example 271, (R)-6-(4-methoxyphenylamino)-4-((1-propionylpiperidin-3-yl)methylamino)nicotinamide], for which the 50% inhibitory concentration (IC50) on JAK1 is greater than 1 µM; against JAK2, greater than 1 µM; on JAK3, 0.01 to 0.1 µM.

On to `CN(C)C(=O)c1ccc(Nc2cc(NCc3ccccc3)c(C(N)=O)cn2)cc1C(F)(F)F` [Example 272, 4-(benzylamino)-6-(4-(dimethylcarbamoyl)-3-(trifluoromethyl)phenylamino)nicotinamide], for which the IC50 against JAK1 is greater than 1 µM; against JAK2 it was greater than 1 µM; on JAK3, 0.01 to 0.1 µM.

Consider `CN(C)C(=O)c1ccc(Nc2cc(NCc3ccccc3)c(C(N)=O)cn2)cc1F` [Example 273, 4-(benzylamino)-6-(4-(dimethylcarbamoyl)-3-fluorophenylamino)nicotinamide], for which the values for the IC50 on JAK1, against JAK2 and against JAK3 were greater than 1 µM, 0.1 to 1 µM and 0.01 to 0.1 µM, respectively.

`CC(=O)N1CCC[C@H](CNc2cc(Nc3ccc(C(=O)N(C)C)c(C(F)(F)F)c3)ncc2C(N)=O)C1` [Example 274, (R)-4-((1-acetylpiperidin-3-yl)methylamino)-6-(4-(dimethylcarbamoyl)-3-(trifluoromethyl)phenylamino)nicotinamide]: the values for the 50% inhibitory concentration (IC50) against JAK1, at JAK2 and against JAK3 were greater than 1 µM, greater than 1 µM and 0.1 to 1 µM, respectively.

With `CC(=O)N1CCC[C@H](CNc2cc(Nc3ccc(C(=O)N(C)C)c(F)c3)ncc2C(N)=O)C1` [Example 275, (R)-4-((1-acetylpiperidin-3-yl)methylamino)-6-(4-(dimethylcarbamoyl)-3-fluorophenylamino)nicotinamide], the concentration for half-maximal inhibition (IC50) against JAK1 is greater than 1 µM; on JAK2 it was greater than 1 µM; at JAK3 it was 0.1 to 1 µM.

With `NC(=O)c1cnc(Nc2ccc(-c3c[nH]cn3)cc2)cc1NCc1ccccc1` [Example 276, 6-(4-(1H-imidazol-4-yl)phenylamino)-4-(benzylamino)nicotinamide], the figures for the half-maximal inhibitory concentration (IC50) against JAK1, on JAK2 and against JAK3 were 0.1 to 1 µM, 0.1 to 1 µM and 0.01 to 0.1 µM, respectively.
